Data on one substance can be found in US8729020B2, “Methods for the treatment of aortic fibrosis with VIP fragments” (Vectus Biosystems Pty Ltd, priority 2009, dated 2014).

The test deals with Male SHR rats on 2.2% salt diet. The test can be described thus: Effect of VIP/VIP fragment infusion on aortic fibrosis in rat model of fibrosis. Conditions: 4 weeks intravenous infusion at 5 pmol/kg/min by osmotic minipump, vs vehicle control, fibrosis quantified as percent surface area. It counts as in vivo. From the text:
Two animal models of aortic fibrosis were used (animals obtained from Australian Animal Resources, Perth, Western Australia, Australia)
i) Male SHR rats on 2.2% salt diet
In each model the rats were randomised to VIP (1-28), VIP (4-12), VIP (4-16), VIP (4-10), VIP (4-20), VIP (4-24), VIP (10-28), VIP (16-20), VIP (16-24), VIP (16-28), VIP (6-10), VIP (6-12), VIP (6-16), VIP (6-20), VIP (6-24), and VIP (6-28). All peptides were obtained from or synthesised by Auspep, Australia. VIP fragments were dissolved in Hartman's solution for subsequent infusion studies. Commencing at 12 weeks of age, the rats were acclimatized to tail cuff blood pressure measurements and handling for 2 weeks. They then underwent operative insertion of an osmotic minipump (Alzet) which was designed to deliver vehicle alone (Hartman's solution, (Baxter Health Care Corporation)-(Controls)) or VIP, VIP fragment at a dose of 5 pmol/kg/min intravenously.
The infusion was continued for 4 weeks, during which the rats were weighed and their blood pressures measured twice weekly. […]
For quantitation of aortic fibrosis, twenty fields from each aorta were digitized and the amount of fibrosis in each determined as percent surface area using Image-Pro Plus V5.0 software. The mean value for each rat and subsequently for each infusion group was then determined.

For the substance “His-Ser-Asp-Ala-Val-Phe-Thr-Asp-Asn-Tyr-Thr-Arg-Leu-Arg-Lys-Gln-Met-Ala-Val-Lys-Lys-Tyr-Leu-Asn-Ser-Ile-Leu-Asn (HSDAVFTDNYTRLRKQMAVKKYLNSILN; listed as Homo sapiens) [VIP]”, the “aortic fibrosis (fibrosis within the aortic wall)” value is recorded as “reductions in aortic fibrosis”.
